Data on 11 compounds can be found in PMC9939005 (Journal of medicinal chemistry, 2022).

The subject of data set [1] is HEL cells (containing the JAK2 V617F mutant). Put plainly: STAT5 phosphorylation in HEL cells, Western blot. It counts as cell-based, Human. The conditions noted are these: for concentration up to which no inhibition of STAT5 phosphorylation was observed: 11: 1-hour incubation. (In western blotting, separated proteins are transferred to a membrane and probed.)
A short description of data set [2]: Parallel Artificial Membrane Permeation Assay. The conditions noted are these: for PAMPA permeability, in words: PAMPA values close or equal to 0; for Papp at 18 h: pH 7.4. In general terms: PAMPA measures passive passage across an artificial lipid membrane.
For a further data set, the target named is JAK2 JH2 WT (Homo sapiens, UniProt O60674). It counts as binding.
Sequence of JAK2 JH2 WT (O60674 536-812): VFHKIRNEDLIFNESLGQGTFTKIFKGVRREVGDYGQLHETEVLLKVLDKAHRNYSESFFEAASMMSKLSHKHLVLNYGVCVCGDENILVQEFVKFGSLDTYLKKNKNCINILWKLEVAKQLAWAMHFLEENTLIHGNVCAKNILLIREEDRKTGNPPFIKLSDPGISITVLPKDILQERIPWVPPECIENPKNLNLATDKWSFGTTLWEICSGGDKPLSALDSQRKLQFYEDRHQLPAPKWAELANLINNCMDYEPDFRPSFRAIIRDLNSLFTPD
Data set [3] has as its system TF-1 cells (containing wild-type JAK2). Put plainly: STAT5 phosphorylation in TF-1 cells, Western blot. In kind it is cell-based, Human. The conditions noted are these: 1 hour.
The test system of data set [4] is TF-1 cells starved of cytokine (WT JAK2). Kind of data set: Stimulation of STAT5 phosphorylation in TF-1 cells starved of cytokine. In kind it is cell-based, Human. The conditions noted are these: 0.1, 0.5, and 2 μM.

As a reminder, the IC50 is the midpoint of a concentration-inhibition curve. As for `Nc1nc(Nc2ccc(S(N)(=O)=O)cc2)nn1C(=O)c1c(F)cccc1F` [Compound 1, JNJ7706621, reference compound], in data set [1] (Homo sapiens, HEL, read-out: IC50 (inhibition of STAT-5 phosphorylation)), the concentration for half-maximal inhibition (IC50) lay in the range of 1000 to 5000 nM.
As to `Nc1nc(Nc2ccc(S(N)(=O)=O)cc2)nn1C(=O)Nc1ccc(-c2cc(OCc3ccccc3)cc(C(=O)O)c2)cc1` [Compound 12, 4’-(5-amino-3-((4-sulfamoylphenyl)amino)-1H-1,2,4-triazole-1-carboxamido)-5-(benzyloxy)-[1,1’-biphenyl]-3-carboxylic acid], the “increase in permeability compared to its isomer 11” value in data set [2] (PAMPA) turned out to be 3 fold. Further, in data set [1] (HEL cells, Western blot), the “concentration up to which no inhibition of STAT5 phosphorylation was observed” value (shortened to “concentration up to which no inhibition”) was more than 25 µM. Besides, the “weaker binder than 11” value at JAK2 JH2 WT (WT JAK2 JH2) is 2 fold.
`Nc1nc(Nc2ccc(S(N)(=O)=O)cc2)nn1C(=O)Nc1ccc(-c2ccccc2)cc1` [Compound 9, N-([1,1’-biphenyl]-4-yl)-5-amino-3-((4-sulfamoylphenyl)amino)-1H-1,2,4-triazole-1-carboxamide]: the “PAMPA permeability, in words” value in data set [2] was “essentially impermeable”. In addition, at JAK2 JH2 WT (JAK2 JH2), the “loss in binding affinity compared to 7” value was “about 3 orders of magnitude”.
`CNC(=O)c1ccc(Nc2nc(N)n(C(=O)Nc3ccc(-c4cc(OCc5ccccc5)cc(C(=O)O)c4)cc3)n2)cc1` [Compound 14, 4’-(5-amino-3-((4-(methylcarbamoyl)phenyl)amino)-1H-1,2,4-triazole-1-carboxamido)-5-(benzyloxy)-[1,1’-biphenyl]-3-carboxylic acid]: the “concentration up to which no inhibition” value in data set [1] (HEL cells, Western blot) was more than 30 µM. Besides, at JAK2 JH2 WT (WT JAK2 JH2), the “improved binding affinity compared to 12” value is on record as 2 fold.
As a reminder, the Papp is the rate of passage across a membrane or cell layer, normalised by area and donor concentration. Read a low Papp as poor permeation. Compound `O=C(N[C@H](CO)[C@H](O)c1ccc([N+](=O)[O-])cc1)C(Cl)Cl` [chloramphenicol, reference compound] displayed a Papp at 18 h in data set [2] (PAMPA) of 4.36 to 4.99 ×10⁻⁶ cm/s.
In the case of `COC(=O)c1cccc(-c2ccc(NC(=O)n3nc(Nc4ccc(S(N)(=O)=O)cc4)nc3N)cc2)c1` [Compound 8, Methyl 4’-(5-amino-3-((4-sulfamoylphenyl)amino)-1H-1,2,4-triazole-1-carboxamido)-[1,1’-biphenyl]-3-carboxylate], in data set [2], the “PAMPA permeability, in words” value is reported as “essentially impermeable”. Further, at JAK2 JH2 WT (JAK2 JH2), the “loss in binding affinity compared to 7” value is given as “about 3 orders of magnitude”.
With `CNC(=O)c1ccc(Nc2nc(N)n(C(=O)Nc3ccc(-c4ccc(OCc5ccccc5)c(C(=O)O)c4)cc3)n2)cc1` [Compound 13, 4’-(5-amino-3-((4-(methylcarbamoyl)phenyl)amino)-1H-1,2,4-triazole-1-carboxamido)-4-(benzyloxy)-[1,1’-biphenyl]-3-carboxylic acid], the “inhibition of STAT-5 phosphorylation” value is “complete inhibition” in data set [3] (20 μM, Western blot) and “complete inhibition” in data set [1] (HEL cells, 20 μM, Western blot). Besides, the “concentration range in which inhibition of STAT5 phosphorylation was observed” value in data set [3] (tested at 2-30 μM) was 10 to 20 µM; in data set [1] (HEL cells, tested at 2-30 μM, 1 hour), 10 to 20 µM. For the same compound, the “reduced permeability (compared to 11)” value in data set [2] (PAMPA) is given as approximately 2 fold. In addition, the “stimulation of STAT5 phosphorylation” value in data set [4] is listed as “no stimulation of STAT5 phosphorylation was observed”. For the same compound, at JAK2 JH2 WT, the “stronger binding for WT JH2 than 2” value is recorded as 10 fold.
On to `Cn1c(=O)c2[nH]cnc2n(C)c1=O.O` [theophylline, reference compound], for which, in data set [2] (PAMPA), the apparent permeability coefficient (Papp) at 18 h is 0.27 to 0.33 ×10⁻⁶ cm/s.
Turning to `Nc1nc(Nc2ccc(S(N)(=O)=O)cc2)nn1C(=O)Nc1ccc(-c2ccc(OCc3ccccc3)c(C(=O)O)c2)cc1` [Compound 11, 4’-(5-amino-3-((4-sulfamoylphenyl)amino)-1H-1,2,4-triazole-1-carboxamido)-4-(benzyloxy)-[1,1’-biphenyl]-3-carboxylic acid], the “concentration up to which no inhibition” value in data set [1] (HEL cells, Western blot) is more than 40 µM.
Regarding `Nc1nc(Nc2ccc(S(N)(=O)=O)cc2)nn1C(=O)Nc1ccc(-c2cccc(C(=O)O)c2)cc1` [Compound 7, 4’-(5-amino-3-((4-sulfamoylphenyl)amino)-1H-1,2,4-triazole-1-carboxamido)-[1,1’-biphenyl]-3-carboxylic acid], the “PAMPA permeability, in words” value in data set [2] is given as “essentially impermeable”.
With `Nc1nc(Nc2ccc(S(N)(=O)=O)cc2)nn1C(=O)Nc1ccc(-c2cccc(C(=O)O)n2)cc1` [Compound 3, 6-(4-(5-amino-3-((4-sulfamoylphenyl)amino)-1H-1,2,4-triazole-1-carboxamido)phenyl)picolinic acid], the “loss in binding affinity compared to 2” value at JAK2 JH2 WT (JAK2 JH2) worked out at 3 fold.
